Assay results published in patent publication US11930812B2, “Coating materials for seeds and for particulate materials, including fertilizers” (ADVANCED BIOLOGICAL MARKETING, INC., priority 2017, dated 2024).

Tests used:
[1] = system: squash; assay: Field-grown squash yield after seed treatment; assay type: in vivo; details: seed treatment about 0.7 μl; differences significant at P=0.01; FIG. 2C
Method: (§1) Turning to FIG. 2 in detail, pictured are long-term effects of 1-octen-3-ol (represented as the designation “Omega” on the chart) on yields of corn, yield increases in squash and control of powdery mildew on squash. Treatments in every case were seed treatments with about 0.7 μl of 1-octen-3-ol. […] FIGS. 2C and 2D show yield differences and disease resistance, as indicated by occurrence of powdery mildew from natural infection in field-grown squash following the same seed treatment protocol as above. The differences shown are significant at P=0.01. The yields are weights of fruit/ac. The powdery mildew disease rating is 0=no disease, 1=1 lesion/leaf, 2=2 lesions/leaf and 3=3 lesions per leaf.

[2] = system: corn; assay: Corn root length in field grown plants (back hoe trench) after seed treatment; assay type: in vivo; details: seed treatment 0.7 μl, severe drought, control root 30 cm, FIG. 1B
From the text: In the roots produced in field soil in PVC pipes, adequate water was applied throughout the growing season. Conversely, in the field trial shown in FIG. 1, the plants were subject to severe drought, according to official weather service notices. In both cases, the growth of roots was much greater when produced from seeds treated with the chemical. […] When grown in the field, that is, in a setting where maximum root length was not impeded by the experiment itself, a similar or better result obtained. In FIG. 1B, roots were exposed in field grown plants with a back hoe trench and photographed. The images were adjusted so that the root volume in each is proportionally sized. In the control shown the root was 30 cm long, and with the treatment the root was 78 cm long to deepest part of the root visible.

[3] = moderate toxicity; cited from earlier work
[4] = system: powdery mildew; assay: Powdery mildew from natural infection in field-grown squash after seed treatment; assay type: in vivo; details: seed treatment about 0.7 μl, differences significant at P=0.01, FIG. 2D
Method: as §1

[5] = system: corn; assay: Field trials of seed treatment, early-season flooding stress; assay type: in vivo; details: seed treatment 0.7 μl/seed
[6] = system: corn; assay: Corn root development in PVC tubes in natural field soil after seed treatment; assay type: in vivo; details: seed treated with 0.7 μl; corn maturity, 3 months after application; PVC tubes about 4 M long; FIG. 1A
Method: In the roots produced in field soil in PVC pipes, adequate water was applied throughout the growing season. Conversely, in the field trial shown in FIG. 1, the plants were subject to severe drought, according to official weather service notices. In both cases, the growth of roots was much greater when produced from seeds treated with the chemical. […] Turning to FIG. 1 in detail, pictured are the development of corn roots from seeds not treated (left) or treated with 0.7 μl of 1-octen-3-ol (right) at the time of corn maturity (that is, 3 months after application of octenol). In FIG. 1A, plants were grown in PVC tubes about 4 M long in natural field soil, and the treated seeds produced roots that exceeded the control by about 50%. Length of roots are indicated in meters (M) by the scale at right.

[7] = system: corn; assay: Corn field trials 2015, yields after seed treatment; assay type: in vivo; details: seed treatment about 0.7 μl, 2-3 months post-planting
Method: Turning to FIG. 2 in detail, pictured are long-term effects of 1-octen-3-ol (represented as the designation “Omega” on the chart) on yields of corn, yield increases in squash and control of powdery mildew on squash. Treatments in every case were seed treatments with about 0.7 μl of 1-octen-3-ol. […] FIGS. 2A and 2B show yields of corn in field trials, 2015.

[8] = system: corn; assay: Corn seedling size after seed or urea fertilizer treatment with cyclodextrin/6PP; assay type: in vivo; details: cyclodextrin formulation; 0.2, 2 and 20 μl/seed or μl/g of urea fertilizer; plants about 15 days old; FIG. 4
Method: FIG. 4 illustrates corn seedling size following seed treatments at 0 (CO), 0.2, 2 and 20 μl/seed or of fertilizer with cyclodextrin/6PP at 0 (CO), 0.2, 2 and 20 μl/g of urea fertilizer. Plants were about 15 days old and bars with dissimilar letters denote statistical differences at P=0.01. The formulation systems designated here can be used with many other triggering compounds, signal molecules, or substances. In FIG. 4 is shown data on 6-pentyl pyrone (6PP) used with the same cyclodextrin formulation described above for use with 1-octen-3-ol. 6PP is effective in this use.

Row | Structure (SMILES) | squash yield (weights of fruit/ac) [1] | root length to deepest part of the root visible [2] [cm] | LD 50 [3] [mg/kg] | disease resistance (powdery mildew disease rating) [4] | resistance to flooding stress [5] | roots exceeding the control [6] | biomass yield of corn versus untreated ([7]; FIG. 2A) | grain yield of corn versus untreated ([7]; FIG. 2B) | corn seedling size [8]
1 | C=CC(O)CCCCC (stereo not drawn) [1-octen-3-ol] | systemically enhanced | 78 | 340 | systemically enhanced | resistance to early-season flooding stress | about 50% | significantly higher yields | significantly higher yields | 
2 | CCCCCc1cccc(=O)o1 [6PP, 6-pentyl pyrone] |  |  |  |  |  |  |  |  | effective
